# Results reported in paper PMC9886550, “Molecular mechanism of topoisomerase poisoning by the peptide antibiotic albicidin” (Nature Catalysis, 2023).
# Read-outs that look alike come from different tables or passages of the source.
# What was measured:
# [1] = test system: B. subtilis DSM10; assay: MIC determination (microdilution, M07-A9); assay type: cell-based; conditions: Bacillus subtilis
# Description: (§1) MIC values were determined according to the ninth edition of the Approved Standard M07-A9. The test was carried out for six different bacterial strains (E. coli DSM 1116 (Gram-negative), E. coli BW25113 (Gram-negative), B. subtilis DSM 10 (Gram-positive), M. luteus DSM 1790 (Gram-positive), M. phlei DSM 750 (Gram-positive), S. typhimurium TA 100 (Gram-negative). First, 20 µl of glycerol stock of each strain was inoculated in 20 ml LB (Lennox) followed by incubation overnight at 37 °C, 200 r.p.m. The test inoculum was adjusted by the 0.5 McFarland Standard. Within 15 min of preparation, the adjusted inoculum suspension was diluted in MHBII so that each well contained approximately 5 × 10^5 c.f.u. ml^−1 in a final volume of 100 µl. Then, 95 µl of the inoculum was applied per well and 5 µl of the (diluted) albicidins was added. For dilutions, the dry powders were dissolved in dimethylsulfoxide (DMSO) with a concentration of 2.56 mg ml^−1, and the obtained stock solutions were further diluted in DMSO. Next, 5 µl of each antibiotic dilution was applied to the microdilution tray to reach final concentrations of 8 to 0.016 µg ml^−1. One row of each well plate served as a growth control without antibiotic and another row of the microdilution tray served as a sterility control (only MHBII media). The antimicrobial effect of the solvent was tested by adding 5 µl DMSO to several wells. Purity check and cell titre control were performed according to International Standard M07-A9 on Mueller–Hinton II Agar. Both microdilution trays and agar plates were incubated at 37 °C for 20 h.
# [2] = test system: E. coli BW25113; assay: MIC determination (microdilution, M07-A9); assay type: cell-based; conditions: E. coli BW25113
# Description: as §1
# [3] = test system: M. phlei DSM750; assay: MIC determination (microdilution, M07-A9); assay type: cell-based; conditions: Mycolicibacterium phlei
# Description: as §1
# [4] = test system: S. typhimurium TA100; assay: MIC determination (microdilution, M07-A9); assay type: cell-based; conditions: Salmonella enterica, first value in cell (biological replicate), read-out: MIC
# Description: as §1
# [5] = target: T1, WT E. coli gyrase (Escherichia coli, UniProt P0AES4+P0AES6); assay: biochemical; assay type: biochemical; conditions: for % cleaved DNA Average: average of replicates
# T1 construct: alternative cryo-EM approach involving full-length E. coli gyrase; 10-His (cleaved yes); Twin-Strep (cleaved yes); made in house
# Description: (§2) For DNA gyrase supercoiling assays to characterize gyrase mutants, 15 µl reactions were set up containing 250 ng of relaxed DNA, E. coli gyrase supercoiling buffer (35 mM Tris–Cl pH 7.5, 24 mM KCl, 4 mM MgCl2, 2 mM DTT, 1.8 mM spermidine, 1 mM ATP, 6.0% (w/v) glycerol, and 0.1 mg ml^−1 BSA), gyrase subunits and inhibitors. Concentrations of enzyme and inhibitor are stated in the figure legends. Inhibitors were diluted in the following way to reduce the chance of precipitation: stock compound in 100% DMSO was diluted to 5 mM in 100% DMSO. This compound solution was diluted to 1 mM by stepwise addition of 1 µl of 50% DMSO with thorough mixing via pipetting after each addition. All subsequent dilutions up to 100 µM were performed in the same way using H2O. After this point, compounds were stable and could be diluted in the normal way. Reactions were incubated at 37 °C for 30 min before stopping with 15 µl chloroform:isoamyl alcohol (24:1 v/v) and 15 µl of STEB (40% (w/v) sucrose, 100 mM Tris–Cl pH 8, 10 mM EDTA, 0.5 mg ml^−1 bromophenol blue).
# (§3) Cleavage assays were set up in the same way as supercoiling assays with some modifications. The concentration of enzyme was increased 4-fold relative to the supercoiling assay and reactions were incubated for 1 h before addition of 0.2% SDS and proteinase K (0.2 mg ml^−1) and further incubation at 37 °C for 30 min to trap cleavage complexes. Reactions were stopped in the same way as supercoiling assays.
# (§4) Results were visualized by agarose gel electrophoresis: 1% agarose Tris-acetate-EDTA (TAE) gels were run without ethidium bromide (supercoiling) or with 10 µg ml^−1 ethidium bromide (cleavage) at 8 V cm^−1.
# (§5) DNA cleavage gels were analysed using densitometry (ImageJ). Experiments were carried out in triplicate and expressed as mean ± s.d. Curves were fitted using OriginPro 2021 (Origin Lab) according to a modified Hill equation:1 y=cI+(cF−cI)[…]/(k^n+x^n) where y is the percentage of cleaved DNA, cI is the initial cleavage, cF is the final cleavage, k is the CC50 (the concentration of inhibitor that results in cleavage of 50% of DNA), n is a slope factor and x is the inhibitor concentration.
# [6] = target: T2, E. coli gyrase GyrA^A67Q (Escherichia coli, UniProt P0AES4+P0AES6, A67Q); assay: DNA gyrase cleavage assay (CC50, % cleaved DNA); assay type: biochemical; conditions: for % cleaved DNA Average: average of replicates
# T2 construct: alternative cryo-EM approach involving full-length E. coli gyrase; 10-His (cleaved yes); Twin-Strep (cleaved yes); made in house
# Description: as §2, §3, §4, §5
# [7] = target: T3, E. coli gyrase GyrA^M120A (Escherichia coli, UniProt P0AES4+P0AES6, M120A); assay: DNA gyrase cleavage assay (CC50, % cleaved DNA); assay type: biochemical; conditions: for % cleaved DNA Average: average of replicates
# T3 construct: alternative cryo-EM approach involving full-length E. coli gyrase; 10-His (cleaved yes); Twin-Strep (cleaved yes); made in house
# Description: as §2, §3, §4, §5
# [8] = target: T4, E. coli gyrase GyrA^S83L (Escherichia coli, UniProt P0AES4+P0AES6, S83L); assay: DNA gyrase cleavage assay (CC50, % cleaved DNA); assay type: biochemical; conditions: for % cleaved DNA Average: average of replicates
# T4 construct: alternative cryo-EM approach involving full-length E. coli gyrase; 10-His (cleaved yes); Twin-Strep (cleaved yes); made in house
# Description: as §2, §3, §4, §5
# [9] = target: T5, E. coli gyrase GyrA^V70A (Escherichia coli, UniProt P0AES4+P0AES6, V70A); assay: DNA gyrase cleavage assay (CC50, % cleaved DNA); assay type: biochemical; conditions: for % cleaved DNA Average: average of replicates
# T5 construct: alternative cryo-EM approach involving full-length E. coli gyrase; 10-His (cleaved yes); Twin-Strep (cleaved yes); made in house
# Description: as §2, §3, §4, §5
# [10] = target: T6, E. coli gyrase GyrB^K447W (Escherichia coli, UniProt P0AES4+P0AES6, K447W); assay: DNA gyrase cleavage assay (CC50, % cleaved DNA); assay type: biochemical
# T6 construct: alternative cryo-EM approach involving full-length E. coli gyrase; 10-His (cleaved yes); Twin-Strep (cleaved yes); made in house
# Description: as §2, §3, §4, §5
# [11] = first value in cell (biological replicate)
# [12] = second value in cell (biological replicate)
smiles,measurement,setting,value
COc1c(NC(=O)c2ccc(NC(=O)c3ccc(NC(=O)[C@H](CC#N)NC(=O)c4ccc(NC(=O)/C(C)=C/c5ccc(O)cc5)cc4)cc3)c(OC)c2O)ccc(C(=O)O)c1O [Albicidin],MIC,[1]; [11],< 0.25 µg/mL
same,MIC,[1]; [12],0.25 µg/mL
same,MIC,[2]; [12],0.063 µg/mL
same,MIC,"[2]; Escherichia coli, first value in cell (biological replicate), read-out: MIC",0.063 µg/mL
same,MIC,[3]; [11],2 µg/mL
same,MIC,[3]; [12],2 µg/mL
same,MIC,[4],0.063 µg/mL
same,% maximal cleavage,"[5]; GyraseWT, average of 3 independent assays",81±2%
same,EC50,"[5]; Gyrase^WT, mean ± s.d. of triplicate, read-out: CC50 (the source's name)",46 ± 3.7 nM
same,% cleaved DNA Average,[5]; albicidin 0.0005 µM,3.748%
same,% cleaved DNA Average,[5]; albicidin 0.0025 µM,5.277%
same,% cleaved DNA Average,[5]; albicidin 0.005 µM,6.761%
same,% cleaved DNA Average,[5]; albicidin 0.01 µM,11.8941%
same,% cleaved DNA Average,[5]; albicidin 0.025 µM,24.028%
same,% cleaved DNA Average,[5]; albicidin 0.05 µM,56.851%
same,% cleaved DNA Average,[5]; albicidin 0.1 µM,62.7758%
same,% cleaved DNA Average,[5]; albicidin 0.25 µM,75.7465%
same,% cleaved DNA Average,[5]; albicidin 0.5 µM,79.6286%
same,% cleaved DNA Average,[5]; albicidin 1 µM,76.3016%
same,% cleaved DNA Average,[5]; albicidin 10 µM,81.3635%
same,increase in CC50,[6]; 1 h,more than 10 fold
same,% maximal cleavage,"[6]; GyrAA67Q, average of 3 independent assays",83±1%
same,EC50,"[6]; GyrA^A67Q, mean ± s.d. of triplicate",610 ± 124 nM
same,% cleaved DNA Average,[6]; albicidin 0.01 µM,3.538%
same,% cleaved DNA Average,[6]; albicidin 0.025 µM,4.787%
same,% cleaved DNA Average,[6]; albicidin 0.05 µM,6.475%
same,% cleaved DNA Average,[6]; albicidin 0.1 µM,6.201%
same,% cleaved DNA Average,[6]; albicidin 0.25 µM,17.9877%
same,% cleaved DNA Average,[6]; albicidin 0.5 µM,34.7807%
same,% cleaved DNA Average,[6]; albicidin 1 µM,60.5747%
same,% cleaved DNA Average,[6]; albicidin 5 µM,76.5607%
same,% cleaved DNA Average,[6]; albicidin 10 µM,82.9213%
same,% cleaved DNA Average,[6]; albicidin 25 µM,77.2008%
same,% cleaved DNA Average,[6]; albicidin 50 µM,74.453%
same,% maximal cleavage,"[7]; GyrAM120A, average of 3 independent assays",72±3%
same,EC50,"[7]; GyrA^M120A, mean ± s.d. of triplicate",50 ± 11 nM
same,% cleaved DNA Average,[7]; albicidin 0.0005 µM,4.819%
same,% cleaved DNA Average,[7]; albicidin 0.001 µM,6.609%
same,% cleaved DNA Average,[7]; albicidin 0.0025 µM,6.667%
same,% cleaved DNA Average,[7]; albicidin 0.005 µM,6.183%
same,% cleaved DNA Average,[7]; albicidin 0.01 µM,19.8754%
same,% cleaved DNA Average,[7]; albicidin 0.025 µM,25.7528%
same,% cleaved DNA Average,[7]; albicidin 0.05 µM,41.0477%
same,% cleaved DNA Average,[7]; albicidin 0.1 µM,46.9644%
same,% cleaved DNA Average,[7]; albicidin 0.5 µM,60.6731%
same,% cleaved DNA Average,[7]; albicidin 1 µM,72.349%
same,increase in CC50,[8]; 1 h,3 fold
same,% maximal cleavage,"[8]; GyrAS83L, average of 3 independent assays",68±5%
same,EC50,"[8]; GyrA^S83L, mean ± s.d. of triplicate",129 ± 43 nM
same,% cleaved DNA Average,[8]; albicidin 0.0025 µM,2.652%
same,% cleaved DNA Average,[8]; albicidin 0.005 µM,2.693%
same,% cleaved DNA Average,[8]; albicidin 0.01 µM,2.768%
same,% cleaved DNA Average,[8]; albicidin 0.025 µM,5.278%
same,% cleaved DNA Average,[8]; albicidin 0.05 µM,12.476%
same,% cleaved DNA Average,[8]; albicidin 0.1 µM,26.0782%
same,% cleaved DNA Average,[8]; albicidin 0.5 µM,63.6873%
same,% cleaved DNA Average,[8]; albicidin 1 µM,64.6552%
same,% cleaved DNA Average,[8]; albicidin 5 µM,67.9433%
same,increase in CC50,[9]; 1 h,> 25 fold
same,% maximal cleavage,"[9]; GyrAV70A, average of 3 independent assays",80±2%
same,EC50,"[9]; GyrA^V70A, cell prints its own unit",1240 nM
same,% cleaved DNA Average,[9]; albicidin 0.025 µM,3.14%
same,% cleaved DNA Average,[9]; albicidin 0.05 µM,4.791%
same,% cleaved DNA Average,[9]; albicidin 0.1 µM,4.574%
same,% cleaved DNA Average,[9]; albicidin 0.25 µM,12.5575%
same,% cleaved DNA Average,[9]; albicidin 0.5 µM,14.0393%
same,% cleaved DNA Average,[9]; albicidin 1 µM,46.9741%
same,% cleaved DNA Average,[9]; albicidin 5 µM,65.2533%
same,% cleaved DNA Average,[9]; albicidin 10 µM,79.6585%
same,% cleaved DNA Average,[9]; albicidin 50 µM,77.0866%
same,% maximal cleavage,"[10]; GyrBK447W, average of 3 independent assays",27±2%
same,decrease of the maximal cleavage,[10]; GyrB^K447W vs WT gyrase,3 fold
same,increase in CC50,"[10]; GyrB^K447W vs WT gyrase, 60 min",10 fold
same,EC50,"[10]; GyrB^K447W, mean ± s.d. of triplicate",452 ± 108 nM
